# According to patent US20260176289A1, “SMALL MOLECULE INHIBITORS OF KRAS PROTEINS” (Merck Sharp & Dohme LLC, priority 2022, published 2026):
# Read-outs that look alike come from different tables or passages of the source.
# What was measured:
# KRAS-WT = KRAS-WT (Homo sapiens, UniProt P01116); assay: SOS-catalyzed nucleotide exchange assay (Procedure A, TR-FRET), KRAS-WT; type: biochemical; conditions: nucleotide exchange, read-out: KRAS WT GNE IC50
# Procedure, shortened: (§1)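 Compounds (10-point, 3-fold) were preincubated 60 min at room temperature with a biotinylated RAS/Bodipy-GDP/Tb-streptavidin TR-FRET complex. Exchange was started with human SOS plus 3 mM GTP. RAS/SOS: G12C 3/40 nM, WT 1/40 nM, NRAS 1.25/40 nM (60 min); G12V 1.25/160 nM (90 min). The 520/495 ratio was fit four-parameter.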
# KRAS-G12D = KRAS-G12D (Homo sapiens, UniProt P01116, G12D); assay: SOS-catalyzed nucleotide exchange assay (Procedure A, TR-FRET), KRAS-G12D; type: biochemical; conditions: nucleotide exchange, read-out: KRAS G12D GNE IC50
# Chain of KRAS-G12D (P01116 with tags, fused parts or gaps isoform P01116-2 G12D): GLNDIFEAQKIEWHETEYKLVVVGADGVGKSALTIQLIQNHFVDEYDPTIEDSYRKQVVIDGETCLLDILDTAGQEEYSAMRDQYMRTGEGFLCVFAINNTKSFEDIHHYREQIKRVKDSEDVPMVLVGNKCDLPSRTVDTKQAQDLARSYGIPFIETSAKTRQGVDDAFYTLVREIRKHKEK
# Procedure, shortened: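 Signal ratio (520/495 nm, excitation 340 nm) reports Bodipy-GDP retention on biotinylated RAS after SOS-catalyzed exchange with 3 mM GTP. SOS was 40 nM, except 160 nM for G12V. Room-temperature exchange lasted 60 min (90 min for G12V), following a 60 min compound preincubation.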
# AsPC-1 cells = assay: Cellular phospho-ERK assay, AsPC-1 cells (homozygous KRAS-G12D); type: cell-based; conditions: Homo sapiens, ASPC1, 2 h, read-out: AsPC1 pERK IC50
# Procedure, shortened: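 Readout: p-ERK/total ERK ratio measured by Alpha SureFire Ultra multiplex in lysates after 2 h compound exposure (37 °C, 5% CO2). Dosing ran 10 points, 1:3 dilutions, highest final concentration 30 μM. IC50 values derived by four-parameter logistic regression.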
# KRAS-G12V = KRAS-G12V (Homo sapiens, UniProt P01116, G12V); assay: SOS-catalyzed nucleotide exchange assay (Procedure A, TR-FRET), KRAS-G12V; type: biochemical; conditions: nucleotide exchange, read-out: KRAS G12V GNE IC50
# Chain of KRAS-G12V (P01116 with tags, fused parts or gaps isoform P01116-2 G12V): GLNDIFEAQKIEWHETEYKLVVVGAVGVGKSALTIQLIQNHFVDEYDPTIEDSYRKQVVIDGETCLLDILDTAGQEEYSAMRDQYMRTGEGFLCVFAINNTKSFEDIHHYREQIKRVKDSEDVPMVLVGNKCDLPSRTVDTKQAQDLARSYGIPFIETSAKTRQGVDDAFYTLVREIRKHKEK
# Procedure, shortened: as §1
# Chain of KRAS-WT (P01116 with tags, fused parts or gaps isoform P01116-2): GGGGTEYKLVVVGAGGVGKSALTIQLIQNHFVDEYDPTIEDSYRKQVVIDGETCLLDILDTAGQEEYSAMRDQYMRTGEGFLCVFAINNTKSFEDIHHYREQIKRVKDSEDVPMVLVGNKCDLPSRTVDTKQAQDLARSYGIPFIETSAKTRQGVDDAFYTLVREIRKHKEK
IC50 (KRAS-WT) [µM],IC50 (KRAS-G12D) [µM],IC50 (AsPC-1 cells; 2 hours compound incubation) [µM],IC50 (KRAS-G12V) [µM],"IC50 (AsPC-1 cells; KRAS-G12D, 2 hours) [µM]",Compound
0.0597,0.00696,0.315,0.0919,,"C[C@@]1(O)COCCN(c2nc(OC[C@]3(CN4C[C@H]5CCO[C@H]5C4)CC3(F)F)nc3sc4c(-c5c(C6(F)CC6)c(Cl)cc6[nH]ncc56)nccc4c23)C1 [Ex-254, (6S)-4-(8-(6-chloro-5-(1-fluorocyclopropyl)-1H-indazol-4-yl)-2-(((R)-2,2-difluoro-1-(((3aR,6aR)-hexahydro-5H-furo[2,3-c]pyrrol-5-yl)methyl)cyclopropyl)metho-xy)pyrido[4′,3′:4,5]thieno[2,3-d]pyrimidin-4-yl)-6-methyl-1,4-oxazepan-6-ol]"
0.0816,0.017,0.369,0.0583,,"C[C@@H]1CCN1C[C@@]1(COc2nc(N3CCOC[C@@](C)(O)C3)c3c(n2)sc2c(-c4c(C5(F)CC5)c(Cl)cc5[nH]ncc45)nccc23)CC1(F)F [Ex-261, (6S)-4-(8-(6-chloro-5-(1-fluorocyclopropyl)-1H-indazol-4-yl)-2-(((R)-2,2-difluoro-1-(((R)-2-methylazetidin-1-yl)methyl)cyclopropyl)metho-xy)pyrido[4′,3′:4,5]thieno[2,3-d]pyrimidin-4-yl)-6-methyl-1,4-oxazepan-6-ol]"
0.251,0.0767,7.56,0.0779,,"Cc1cc2[nH]ncc2c(-c2nccc3c2sc2nc(OC[C@@]45CCCN4C[C@H](F)C5)nc(N4CCCC5(CC(=O)N5)C4)c23)c1C(F)(F)F (stereo partly drawn) [Ex-195, 6-(2-(((2R,7aS)-2-fluoro-tetrahydro-1H-pyrrolizin-7a(5H)-yl)methoxy)-8-(6-methyl-5-(trifluorometh-yl)-1H-indazol-4-yl)pyrido [4′,3′:4,5]thieno[2,3-d]pyrimidin-4-yl)-1,6-diaza-spiro[3.5]nonan-2-one]"
0.0896,0.0329,0.219,0.0334,,"C[C@@]1(O)COCCN(c2nc(OC[C@@]34CCCN3C[C@H](F)C4)nc3sc4c(-c5c6ccccc6cc6[nH]ncc56)nccc4c23)C1 [Ex-170, (6S)-4-(8-(1H-benzo[f]indazol-4-yl)-2-(((2R,7aS)-2-fluorotetrahydro-1H-pyrrolizin-7a(5H)-yl)methoxy)pyrido[4′,3′:4,5]thieno[2,3-d]pyrimidin-4-yl)-6-methyl-1,4-oxazepan-6-ol]"
0.352,0.0746,0.977,0.32,,"C[C@@]1(O)COCCN(c2nc(OC[C@]3(CN4CCC[C@H]4CF)CC3(F)F)nc3sc4c(-c5c(C6(F)CC6)c(Cl)cc6[nH]ncc56)nccc4c23)C1 [Ex-247, (6S)-4-(8-(6-chloro-5-(1-fluorocyclopropyl)-1H-indazol-4-yl)-2-(((R)-2,2-difluoro-1-(((S)-2-(fluoromethyl)pyrrolidin-1-yl)methyl)cyclopropyl)metho-xy)pyrido[4′,3′:4,5]thieno[2,3-d]pyrimidin-4-yl)-6-methyl-1,4-oxazepan-6-ol]"
0.153,0.0101,0.498,0.0259,,"C[C@@]1(O)COCCN(c2nc(OC[C@]3(CN4CCC5(CC4)CC5)CC3(F)F)nc3sc4c(-c5c(C6(F)CC6)c(Cl)cc6[nH]ncc56)nccc4c23)C1 [Ex-233, (6S)-4-(2-(((R)-1-((6-azaspiro[2.5]octan-6-yl)methyl)-2,2-difluorocyclopropyl)methoxy)-8-(6-chloro-5-(1-fluorocyclopropyl)-1H-indazol-4-yl)pyrido[4′,3′:4,5]thieno[2,3-d]pyrimidin-4-yl)-6-methyl-1,4-oxazepan-6-ol]"
0.136,0.0616,,0.0898,1.15,"C#Cc1c(F)ccc2cc3[nH]ncc3c(-c3nccc4c5c(N6CCOC[C@@](C)(O)C6)nc(OC[C@@]67CCCN6C[C@H](F)C7)nc5n(C)c34)c12 [Ex-25, (6S)-4-(8-(5-ethynyl-6-fluoro-1H-benzo[f]indazol-4-yl)-2-(((2R,7aS)-2-fluorotetrahydro-1H-pyrrolizin-7a(5H)-yl)methoxy)-9-methyl-9H-pyrido[4′,3′:4,5]pyrrolo[2,3-d]pyrimidin-4-yl)-6-methyl-1,4-oxazepan-6-ol]"
1.03,0.369,,0.278,3.43,"Cc1c(Cl)cccc1-c1nccc2c1sc1nc(OC[C@@]34CCCN3C[C@H](F)C4)nc(N3CCOC[C@@](C)(O)C3)c12 [Ex-121, (S)-4-(8-(3-chloro-2-methylphenyl)-2-(((2R,7aS)-2-fluorotetrahydro-1H-pyrrolizin-7a(5H)-yl)methoxy)pyrido[4′,3′:4,5]thi-eno[2,3-d]pyrimidin-4-yl)-6-methyl-1,4-oxazepan-6-ol]"
0.474,0.141,0.613,0.0929,,Cc1cc2[nH]ncc2c(-c2nccc3c2sc2nc(OC[C@@]45CCCN4C[C@H](F)C5)nc(N4CCC[C@]5(CCO5)C4)c23)c1C(F)(F)F [Ex-200]
1.08,0.403,,0.269,2.03,"Cc1cccc(-c2nccc3c2sc2nc(OC[C@@]45CCCN4C[C@H](F)C5)nc(N4CCOC[C@@](C)(O)C4)c23)c1C [Ex-120, (S)-4-(8-(2,3-dimethylpheny1)-2-(((2R,7aS)-2-fluorotetrahydro-1H-pyrrolizin-7a(5H)-yl)methoxy)pyrido[4′,3′:4,5]thi-eno[2,3-d]pyrimidin-4-yl)-6-methyl-1,4-oxazepan-6-ol]"
0.852,0.251,,0.143,1.53,"Cc1cc2[nH]ncc2c(-c2nc(-c3ccoc3)cc3c2sc2nc(OC[C@@]45CCCN4C[C@H](F)C5)nc(N4CCOC[C@@](C)(O)C4)c23)c1C(F)(F)F [Ex-29, (6S)-4-(2-(((2R,7aS)-2-fluorotetrahydro-1H-pyrrolizin-7a(5H)-yl)methoxy)-6-(furan-3-yl)-8-(6-methyl-5-(trifluoromethyl)-1H-indazol-4-yl)pyrido[4′,3′:4,5]thieno[2,3-d]pyrimidin-4-yl)-6-methyl-1,4-oxazepan-6-ol]"
0.486,0.0416,1.21,0.185,,"CO[C@]12CC[C@H]1CN(C[C@@]1(COc3nc(N4CCOC[C@@](C)(O)C4)c4c(n3)sc3c(-c5c(C6(F)CC6)c(Cl)cc6[nH]ncc56)nccc34)CC1(F)F)C2 [Ex-260, (6S)-4-(8-(6-chloro-5-(1-fluorocyclopropyl)-1H-indazol-4-yl)-2-(((R)-2,2-difluoro-1-(((1R,5S)-1-methoxy-3-azabicyclo[3.2.0]heptan-3-yl)methyl)cyclopropyl)metho-xy)pyrido[4′,3′:4,5]thieno[2,3-d]pyrimidin-4-yl)-6-methyl-1,4-oxazepan-6-ol]"
0.0578,0.00496,0.232,0.0322,,"C[C@@]1(O)COCCN(c2nc(OC[C@]3(CN4C[C@@H]5CCCO[C@H]5C4)CC3(F)F)nc3sc4c(-c5c(C6(F)CC6)c(Cl)cc6[nH]ncc56)nccc4c23)C1 [Ex-252, (6S)-4-(8-(6-chloro-5-(1-fluorocyclopropyl)-1H-indazol-4-yl)-2-(((R)-2,2-difluoro-1-(((4aS,7aR)-hexahydropyrano[2,3-c]pyrrol-6(2H)-yl)methyl)cyclopropyl)methoxy)pyrido[4′,3′:4,5]thieno[2,3-d]pyrimidin-4-yl)-6-methyl-1,4-oxazepan-6-ol]"
0.161,0.066,,0.094,1.03,"CN1CCc2cc3[nH]ncc3c(-c3nccc4c3sc3nc(OC[C@@]56CCCN5C[C@H](F)C6)nc(N5CCOC[C@@](C)(O)C5)c34)c21 [Ex-125, (6S)-4-(2-(((2R,7aS)-2-fluorotetrahydro-1H-pyrrolizin-7a(5H)-yl)methoxy)-8-(5-methyl-1,5,6,7-tetrahydropyrrolo[2,3-f]indazol-4-yl)pyrido[4′,3′:4,5]thieno[2,3-d]pyrimidin-4-yl)-6-methyl-1,4-oxazepan-6-ol]"

Compound,IC50 (KRAS-WT) [µM],IC50 (KRAS-G12D) [µM],IC50 (AsPC-1 cells; 2 hours compound incubation) [µM],IC50 (KRAS-G12V) [µM],"IC50 (AsPC-1 cells; KRAS-G12D, 2 hours) [µM]"
"C[C@@]1(O)COCCN(c2nc(OC[C@]3(CN4[C@@H]5CC[C@H]4C[C@H](F)C5)CC3(F)F)nc3sc4c(-c5c(C6(F)CC6)c(Cl)cc6[nH]ncc56)nccc4c23)C1 [Ex-251, (6S)-4-(8-(6-chloro-5-(1-fluorocyclopropyl)-1H-indazol-4-yl)-2-(((R)-2,2-difluoro-1-(((1R,3S,5S)-3-fluoro-8-azabicyclo[3.2.1]octan-8-yl)methyl)cyclopropyl)metho-xy)pyrido[4′,3′:4,5]thieno[2,3-d]pyrimidin-4-yl)-6-methyl-1,4-oxazepan-6-ol]",0.489,0.053,0.67,0.11,
